The target of one assay is T1, PDGF-Ra (Homo sapiens, UniProt P16234).
T1 construct: host or cells: G-292 human osteosarcoma cells
Put plainly: Inhibitory activity against PDGF-Ra phosphorylation by PDGF-AA stimulation using G292. Format: cell-based. As to conditions: for IC50: Pharmacological Test Example 1, > means inhibition at indicated concentration not more than 50%, < and << not less than 50%, read-out: PDGF (E) IC50. In short, it runs like this: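 G-292 human osteosarcoma cells, serum-starved overnight in 0.1% FBS, were pretreated with compound in DMSO for 1 hr at 37 °C, then stimulated with 50 ng/ml PDGF-AA for 5 min. Lysates were captured on anti-phosphotyrosine PY-20 plates and probed with anti-PDGF-Ra plus HRP secondary; absorbance read at 450 nm.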

In another assay the target is T2, c-kit (Homo sapiens, UniProt P10721).
T2 construct: MO7e (human megakaryocytic leukemia cell line) which had been arrested for 20 hr; endogenous in cells; host or cells: MO7e human megakaryocytic leukemia cell line
Put plainly: Inhibitory activity against c-kit autophosphorylation (MO7e cells, h-SCF). It counts as cell-based. To be noted: for IC50: MO7e cells, h-SCF 50 ng/ml, read-out: c-kit IC50; for inhibition at 1 µM: Mo7e, figure in parentheses in −( ), at 1000 nM. In short, it runs like this: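 In this cellular autophosphorylation assay, compound-treated MO7e cells (1 hr) were challenged with human stem cell factor at 50 ng/ml for 5 min; detection relied on PY-20 capture and anti-c-kit/HRP immunodetection at 450 nm.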

Structures are written as SMILES. A value given as a limit tells only on which side of the number the result lay.

T2 sequence (P10721 26-976): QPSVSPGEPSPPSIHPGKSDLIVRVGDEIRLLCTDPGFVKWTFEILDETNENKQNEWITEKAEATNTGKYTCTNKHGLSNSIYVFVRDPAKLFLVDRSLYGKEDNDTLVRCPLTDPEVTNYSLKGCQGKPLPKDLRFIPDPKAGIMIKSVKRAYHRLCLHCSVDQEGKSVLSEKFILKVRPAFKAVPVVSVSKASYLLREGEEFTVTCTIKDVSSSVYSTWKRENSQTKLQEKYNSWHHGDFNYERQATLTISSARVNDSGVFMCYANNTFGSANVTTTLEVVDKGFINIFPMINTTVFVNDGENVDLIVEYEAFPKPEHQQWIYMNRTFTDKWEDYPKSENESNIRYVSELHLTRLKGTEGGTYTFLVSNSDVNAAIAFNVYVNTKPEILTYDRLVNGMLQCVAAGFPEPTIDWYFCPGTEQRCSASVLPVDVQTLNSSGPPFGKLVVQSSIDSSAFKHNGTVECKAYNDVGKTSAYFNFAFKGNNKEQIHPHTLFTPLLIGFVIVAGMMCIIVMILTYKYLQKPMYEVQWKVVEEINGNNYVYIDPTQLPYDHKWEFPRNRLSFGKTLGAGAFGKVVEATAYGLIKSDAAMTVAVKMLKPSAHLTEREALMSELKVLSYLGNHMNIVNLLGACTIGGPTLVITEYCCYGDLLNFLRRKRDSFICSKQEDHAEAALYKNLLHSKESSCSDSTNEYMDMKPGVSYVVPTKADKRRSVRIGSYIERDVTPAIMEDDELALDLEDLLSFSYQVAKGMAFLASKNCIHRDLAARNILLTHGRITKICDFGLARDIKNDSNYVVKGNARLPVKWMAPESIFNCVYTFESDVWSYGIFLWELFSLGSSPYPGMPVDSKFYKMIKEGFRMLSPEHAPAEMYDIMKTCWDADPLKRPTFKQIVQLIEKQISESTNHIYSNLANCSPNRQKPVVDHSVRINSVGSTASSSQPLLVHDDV
T1 sequence (P16234 24-1089): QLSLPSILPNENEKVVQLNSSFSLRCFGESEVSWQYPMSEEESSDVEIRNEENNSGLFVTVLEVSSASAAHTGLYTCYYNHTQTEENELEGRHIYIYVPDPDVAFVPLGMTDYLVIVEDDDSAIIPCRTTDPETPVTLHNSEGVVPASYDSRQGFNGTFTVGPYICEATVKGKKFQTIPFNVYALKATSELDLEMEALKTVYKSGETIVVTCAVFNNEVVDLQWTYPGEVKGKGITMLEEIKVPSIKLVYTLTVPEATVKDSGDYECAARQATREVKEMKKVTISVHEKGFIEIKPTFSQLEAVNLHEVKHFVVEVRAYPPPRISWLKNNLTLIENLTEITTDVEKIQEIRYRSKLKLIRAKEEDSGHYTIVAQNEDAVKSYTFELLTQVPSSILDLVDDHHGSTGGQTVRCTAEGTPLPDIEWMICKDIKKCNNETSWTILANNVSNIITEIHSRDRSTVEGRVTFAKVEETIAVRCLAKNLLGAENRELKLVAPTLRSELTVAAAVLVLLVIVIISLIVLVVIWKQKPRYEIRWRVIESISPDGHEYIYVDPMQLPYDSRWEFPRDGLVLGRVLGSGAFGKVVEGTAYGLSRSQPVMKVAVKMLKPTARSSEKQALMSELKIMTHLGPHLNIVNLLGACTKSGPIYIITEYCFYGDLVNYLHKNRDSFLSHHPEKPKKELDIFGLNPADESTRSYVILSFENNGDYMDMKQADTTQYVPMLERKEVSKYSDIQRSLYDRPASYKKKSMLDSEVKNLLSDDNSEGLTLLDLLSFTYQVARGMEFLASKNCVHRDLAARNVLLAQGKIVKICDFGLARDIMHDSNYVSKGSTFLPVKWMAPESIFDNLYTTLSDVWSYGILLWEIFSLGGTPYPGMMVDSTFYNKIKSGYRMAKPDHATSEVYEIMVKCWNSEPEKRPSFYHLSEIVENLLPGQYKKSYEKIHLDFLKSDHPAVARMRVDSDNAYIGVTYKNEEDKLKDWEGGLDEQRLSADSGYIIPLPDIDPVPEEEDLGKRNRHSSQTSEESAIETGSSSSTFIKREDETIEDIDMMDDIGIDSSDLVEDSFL

For `CCC(CC)OC(=O)Nc1ccc(Oc2ncnc3cc(OC)c(OC)cc23)cc1` [Example 361, 1-Ethylpropyl N-{4-[(6,7-dimethoxy-4-quinazolinyl)oxy]phenyl}carbamate], the IC50 (as a rule, the midpoint of a concentration-inhibition curve) on PDGF-Ra was under 10 nM; at c-kit, 278 nM.
Turning to `CCC(CC)OC(=O)Nc1ccc(Oc2ncnc3cc(OC)c(OC)cc23)cc1Cl` [Example 362, 1-Ethylpropyl N-{2-chloro-4-[(6,7-dimethoxy-4-quinazolinyl)oxy]phenyl}carbamate], the IC50 at PDGF-Ra was 42 nM. The inhibition (usually the percentage by which the read-out fell short of the control) at 1 µM on c-kit amounted to 26%.
`COc1cc2nccc(Oc3ccc(NC(=O)OC4CCCC4)cc3)c2cc1OC` [Example 363, Cyclopentyl N-{4-[(6,7-dimethoxy-4-quinolyl)oxy]phenyl}carbamate]: the IC50 is under 10 nM at PDGF-Ra and 72 nM on c-kit.
Consider `COc1cc2nccc(Oc3cc(C)c(NC(=O)OC4CCCC4)cc3C)c2cc1OC` [Example 364, Cyclopentyl N-{4-[(6,7-dimethoxy-4-quinolyl)oxy]-2,5-dimethylphenyl}carbamate], for which the IC50 is 29 nM at PDGF-Ra and 98 nM on c-kit.
The matching figures for `COc1cc2nccc(Oc3ccc(NC(=O)OC4CCCC4)c(C)c3C)c2cc1OC` [Example 365, Cyclopentyl N-{4-[(6,7-dimethoxy-4-quinolyl)oxy]-2,3-dimethylphenyl}carbamate]: under 10 nM and 47 nM.
Take `COc1cc2ncnc(Oc3ccc(NC(=O)OC4CCCC4)cc3)c2cc1OC` [Example 366, Cyclopentyl N-{4-[(6,7-dimethoxy-4-quinazolinyl)oxy]phenyl}carbamate]: the IC50 is 27 nM on PDGF-Ra and 66 nM on c-kit.
Taken in the same sequence, the figures for `COc1cc2ncnc(Oc3ccc(NC(=O)OC4CCCC4)c(Cl)c3)c2cc1OC` [Example 367, Cyclopentyl N-{2-chloro-4-[(6,7-dimethoxy-4-quinazolinyl)oxy]phenyl}carbamate] were 55 nM and 207 nM.
Regarding `CCCCC(CCCC)OC(=O)Nc1ccc(Oc2ccnc3cc(OC)c(OC)cc23)cc1` [Example 368, 1-Butylpentyl N-{4-[(6,7-dimethoxy-4-quinolyl)oxy]phenyl}carbamate], the figures for the IC50 at PDGF-Ra and on c-kit were 64 nM and 426 nM, respectively.
Regarding `CCCCC(CCCC)OC(=O)Nc1cc(C)c(Oc2ccnc3cc(OC)c(OC)cc23)cc1C` [Example 369, 1-Butylpentyl N-{4-[(6,7-dimethoxy-4-quinolyl)oxy]-2,5-dimethylphenyl}carbamate], the IC50 on PDGF-Ra was over 100 nM. Besides, the inhibition at 1 µM on c-kit was found to be 36%.
As to `CCCCC(CCCC)OC(=O)Nc1ccc(Oc2ccnc3cc(OC)c(OC)cc23)c(C)c1C` [Example 370, 1-Butylpentyl N-{4-[(6,7-dimethoxy-4-quinolyl)oxy]-2,3-dimethylphenyl}carbamate], the IC50 is 74 nM at PDGF-Ra and 585 nM on c-kit.
Regarding `CCCCC(CCCC)OC(=O)Nc1ccc(Oc2ncnc3cc(OC)c(OC)cc23)cc1` [Example 371, 1-Butylpentyl N-{4-[(6,7-dimethoxy-4-quinazolinyl)oxy]phenyl}carbamate], the IC50 was under 10 nM at PDGF-Ra and 541 nM at c-kit.
The matching figures for `C=CCOC(=O)Nc1cc(C)c(Oc2ccnc3cc(OC)c(OC)cc23)cc1C` [Example 373, Allyl N-{4-[(6,7-dimethoxy-4-quinolyl)oxy]-2,5-dimethylphenyl}carbamate]: 43 nM and 71 nM.
Taken in the same sequence, the figures for `C=CCOC(=O)Nc1ccc(Oc2ccnc3cc(OC)c(OC)cc23)c(C)c1C` [Example 374, Allyl N-{4-[(6,7-dimethoxy-4-quinolyl)oxy]-2,3-dimethylphenyl}carbamate] were under 10 nM and under 30 nM.
With `C=CCOC(=O)Nc1ccc(Oc2ncnc3cc(OC)c(OC)cc23)cc1` [Example 375, Allyl N-{4-[(6,7-dimethoxy-4-quinazolinyl)oxy]phenyl}carbamate], the 50% inhibitory concentration (IC50) on PDGF-Ra is 74 nM; on c-kit, 144 nM.
The matching figures for `COc1cc2nccc(Oc3ccc(NC(=O)OCCCc4ccccc4)cc3)c2cc1OC` [Example 376, 3-Phenylpropyl N-{4-[(6,7-dimethoxy-4-quinolyl)oxy]phenyl}carbamate]: under 10 nM and 41 nM.
On to `COc1cc2nccc(Oc3cc(C)c(NC(=O)OCCCc4ccccc4)cc3C)c2cc1OC` [Example 377, 3-Phenylpropyl N-{4-[(6,7-dimethoxy-4-quinolyl)oxy]-2,5-dimethylphenyl}carbamate], for which the figures for the IC50 on PDGF-Ra and on c-kit were 21 nM and 151 nM, respectively.
The matching figures for `COc1cc2nccc(Oc3ccc(NC(=O)OCCCc4ccccc4)c(C)c3C)c2cc1OC` [Example 378, 3-Phenylpropyl N-{4-[(6,7-dimethoxy-4-quinolyl)oxy]-2,3-dimethylphenyl}carbamate]: 14 nM and 92 nM.
Regarding `COc1cc2ncnc(Oc3ccc(NC(=O)OCCCc4ccccc4)c(Cl)c3)c2cc1OC` [Example 379, 3-Phenylpropyl N-{2-chloro-4-[(6,7-dimethoxy-4-quinazolinyl)oxy]phenyl}carbamate], the concentration for half-maximal inhibition (IC50) at PDGF-Ra was found to be 11 nM; on c-kit it was 624 nM.
As to `COc1cc2nccc(Oc3ccc(NC(=O)OCC4CC4)cc3)c2cc1OC` [Example 380, Cyclopropylmethyl N-{4-[(6,7-dimethoxy-4-quinolyl)oxy]phenyl}carbamate], the figures for the IC50 on PDGF-Ra and on c-kit were under 10 nM and 45 nM, respectively.
As to `COc1cc2nccc(Oc3ccc(NC(=O)OCC4CC4)c(C)c3C)c2cc1OC` [Example 382, Cyclopropylmethyl N-{4-[(6,7-dimethoxy-4-quinolyl)oxy]-2,3-dimethylphenyl}carbamate], the IC50 at PDGF-Ra is under 10 nM; at c-kit, 28 nM.
For the molecule `COc1cc2ncnc(Oc3ccc(NC(=O)OCC4CC4)cc3)c2cc1OC` [Example 383, Cyclopropylmethyl N-{4-[(6,7-dimethoxy-4-quinazolinyl)oxy]phenyl}carbamate], the IC50 at PDGF-Ra stood at 74 nM; at c-kit, 90 nM.
As to `COc1cc2nccc(Oc3ccc(NC(=O)OCC4CCC4)cc3)c2cc1OC` [Example 385, Cyclobutylmethyl N-{4-[(6,7-dimethoxy-4-quinolyl)oxy]phenyl}carbamate], the half-maximal inhibitory concentration (IC50) at PDGF-Ra was under 10 nM; on c-kit it was 87 nM.
`COc1cc2nccc(Oc3cc(C)c(NC(=O)OCC4CCC4)cc3C)c2cc1OC` [Example 386, Cyclobutylmethyl N-{4-[(6,7-dimethoxy-4-quinolyl)oxy]-2,5-dimethylphenyl}carbamate]: the IC50 came to 20 nM at PDGF-Ra and 105 nM on c-kit.
As to `COc1cc2nccc(Oc3ccc(NC(=O)OCC4CCC4)c(C)c3C)c2cc1OC` [Example 387, Cyclobutylmethyl N-{4-[(6,7-dimethoxy-4-quinolyl)oxy]-2,3-dimethylphenyl}carbamate], the values for the 50% inhibitory concentration (IC50) at PDGF-Ra and on c-kit were under 10 nM and 31 nM, respectively.
In the case of `COc1cc2ncnc(Oc3ccc(NC(=O)OCC4CCC4)cc3)c2cc1OC` [Example 388, Cyclobutylmethyl N-{4-[(6,7-dimethoxy-4-quinazolinyl)oxy]phenyl}carbamate], the IC50 stood at 12 nM at PDGF-Ra and 60 nM at c-kit.
With `COc1cc2ncnc(Oc3cc(C)c(NC(=O)OC4CCCCC4)cc3C)c2cc1OC` [Example 390, Cyclohexyl N-{4-[(6,7-dimethoxy-4-quinazolinyl)oxy]-2,5-dimethylphenyl}carbamate], the IC50 amounted to 33 nM on PDGF-Ra and 400 nM on c-kit.
`COc1cc2ncnc(Oc3ccc(NC(=O)OC4CCCCC4)c(C)c3C)c2cc1OC` [Example 391, Cyclohexyl N-{4-[(6,7-dimethoxy-4-quinazolinyl)oxy]-2,3-dimethylphenyl}carbamate]: the IC50 was 13 nM on PDGF-Ra and 129 nM at c-kit.
For the molecule `COc1cc2ncnc(Oc3cc(C)c(NC(=O)OC4CCCC4)cc3C)c2cc1OC` [Example 392, Cyclopentyl N-{4-[(6,7-dimethoxy-4-quinazolinyl)oxy]-2,5-dimethylphenyl}carbamate], the inhibition at 0.1 µM on PDGF-Ra (G292, figure in parentheses in >100( ), at 100 nM, read-out: PDGF (E) inhibition (%) at 100 nM) stood at 38%. Also, the IC50 at PDGF-Ra is over 100 nM; on c-kit, 432 nM.
In the case of `COc1cc2ncnc(Oc3ccc(NC(=O)OC4CCCC4)c(C)c3C)c2cc1OC` [Example 393, Cyclopentyl N-{4-[(6,7-dimethoxy-4-quinazolinyl)oxy]-2,3-dimethylphenyl}carbamate], the IC50 at PDGF-Ra amounted to 82 nM; on c-kit it was 90 nM.
Consider `COc1cc2nccc(Oc3ccc(NC(=O)OCC4CCCC4)cc3)c2cc1OC` [Example 394, Cyclopentylmethyl N-{4-[(6,7-dimethoxy-4-quinolyl)oxy]phenyl}carbamate], for which the figures for the half-maximal inhibitory concentration (IC50) on PDGF-Ra and at c-kit were under 10 nM and 133 nM, respectively.
As for `COc1cc2nccc(Oc3cc(C)c(NC(=O)OCC4CCCC4)cc3C)c2cc1OC` [Example 395, Cyclopentylmethyl N-{4-[(6,7-dimethoxy-4-quinolyl)oxy]-2,5-dimethylphenyl}carbamate], the IC50 on PDGF-Ra was 19 nM; on c-kit, 226 nM.
The matching figures for `COc1cc2nccc(Oc3ccc(NC(=O)OCC4CCCC4)c(C)c3C)c2cc1OC` [Example 396, Cyclopentylmethyl N-{4-[(6,7-dimethoxy-4-quinolyl)oxy]-2,3-dimethylphenyl}carbamate]: 19 nM and 86 nM.
